4 compounds from ChEMBL document CHEMBL3046279, “Comparison of larvicidal, adulticidal and acaricidal activity of two geometrical butylidenephthalide isomers” (2006) can be followed below.

The subject of assay [1] is Drosophila melanogaster. Kind of assay: Larvicidal activity against Drosophila melanogaster larvae assessed as mortality administered through diet after 8 days. The assay is classed as functional.
Assay [2] deals with Drosophila melanogaster. Kind of assay: Adulticidal activity against Drosophila melanogaster […] assessed as mortality measured per adult. The format is functional.
The test system of assay [3] is Tyrophagus putrescentiae. The assay can be described thus: Acaricidal activity against Tyrophagus putrescentiae assessed as mortality at 10 ug/cm2 after 24 hr relative to control. The format is functional.
In assay [4] the test system is Tyrophagus putrescentiae. The assay can be described thus: Acaricidal activity against Tyrophagus putrescentiae assessed as mortality at 100 ug/cm2 after 24 hr relative to control. The assay is classed as functional.
In assay [5] the test system is Tyrophagus putrescentiae. Kind of assay: Acaricidal activity against Tyrophagus putrescentiae assessed as mortality at 30 ug/cm2 after 24 hr relative to control. The assay is classed as functional.
Assay [6] relates to Dermatophagoides farinae. The assay can be described thus: Acaricidal activity against Dermatophagoides farinae assessed as mortality after 24 hr relative to control. The assay is classed as functional.
In assay [7] the test system is Dermatophagoides farinae. The assay can be described thus: Acaricidal activity against Dermatophagoides farinae assessed as mortality at 40 ug/cm2 after 24 hr relative to control. The format is functional.
The subject of assay [8] is Dermatophagoides farinae. Kind of assay: Acaricidal activity against Dermatophagoides farinae assessed as mortality at 20 ug/cm2 after 24 hr relative to control. The assay is classed as functional.
Assay [9] relates to Dermatophagoides farinae. The assay can be described thus: Acaricidal activity against Dermatophagoides farinae assessed as mortality at 30 ug/cm2 after 24 hr relative to control. The assay is classed as functional.
In assay [10] the test system is Tyrophagus putrescentiae. The assay can be described thus: Acaricidal activity against Tyrophagus putrescentiae assessed as mortality at 50 ug/cm2 after 24 hr relative to control. The assay is classed as functional.
For assay [11], the system named is Dermatophagoides farinae. The assay can be described thus: Acaricidal activity against Dermatophagoides farinae assessed as mortality at 10 ug/cm2 after 24 hr relative to control. The format is functional.
The subject of assay [12] is Tyrophagus putrescentiae. The assay can be described thus: Acaricidal activity against Tyrophagus putrescentiae assessed as mortality after 24 hr. The assay is classed as functional.
For assay [13], the system named is Dermatophagoides farinae. Kind of assay: Acaricidal activity against Dermatophagoides farinae assessed as mortality at 50 ug/cm2 after 24 hr relative to control. The assay is classed as functional.
The subject of assay [14] is Dermatophagoides farinae. Kind of assay: Acaricidal activity against Dermatophagoides farinae assessed as mortality at 2.5 ug/cm2 after 24 hr relative to control. The assay is classed as functional.
Assay [15] deals with Tyrophagus putrescentiae. Kind of assay: Ratio of N,N-diethyl-m-toulamide (DEET) LC50 to compound LC50 for Tyrophagus putrescentiae. The format is functional.
For assay [16], the system named is Drosophila melanogaster. The assay can be described thus: Ratio of rotenone LD50 to compound LD50 for adult Drosophila melanogaster. The format is functional.
In assay [17] the test system is Tyrophagus putrescentiae. The assay can be described thus: Acaricidal activity against Tyrophagus putrescentiae assessed as mortality at 2.5 ug/cm2 after 24 hr relative to control. The assay is classed as functional.
The test system of a further assay is Ctenocephalides felis. Kind of assay: Insecticidal activity against adult Ctenocephalides felis at 200 ug/cm2. The format is functional, organism-based.
In assay [18] the test system is Drosophila melanogaster. Kind of assay: Ratio of rotenone LC50 to compound LC50 for Drosophila melanogaster larvae. The assay is classed as functional.
Assay [19] has as its system Tyrophagus putrescentiae. Kind of assay: Acaricidal activity against Tyrophagus putrescentiae assessed as mortality at 20 ug/cm2 after 24 hr relative to control. The format is functional.
The subject of assay [20] is Dermatophagoides farinae. Kind of assay: Acaricidal activity against Dermatophagoides farinae assessed as mortality at 5 ug/cm2 after 24 hr relative to control. The format is functional.
The subject of assay [21] is Tyrophagus putrescentiae. Kind of assay: Acaricidal activity against Tyrophagus putrescentiae assessed as mortality at 5 ug/cm2 after 24 hr relative to control. The format is functional.
Assay [22] deals with Dermatophagoides farinae. Kind of assay: Ratio of N,N-diethyl-m-toulamide (DEET) LC50 to compound LC50 for Dermatophagoides farinae. The format is functional.

Activity calls are given as the source filed them. The rule behind the calls is not given here.

With `C=C(C)[C@H]1Cc2c(ccc3c2O[C@@H]2COc4cc(OC)c(OC)cc4[C@@H]2C3=O)O1` [ROTENONE], the LC50 in the assay with Drosophila melanogaster [1] came to 20 µM. The LD50 with Drosophila melanogaster [2] was found to be 3.68 µg.

Regarding `CCN(CC)C(=O)c1cccc(C)c1` [DIETHYLTOLUAMIDE], the values for the mortality at 10 µg/cm2 in the assay with Tyrophagus putrescentiae [3] and with Dermatophagoides farinae [11] were 20.8% and 33.2%, respectively. Moreover, in the assay with Tyrophagus putrescentiae [4], the mortality (as a rule, the percentage killed) at 100 µg/cm2 is 100%. Besides, the mortality at 30 µg/cm2 came to 81.1% with Tyrophagus putrescentiae [5] and 100% with Dermatophagoides farinae [9]. Also, the LC50 turned out to be 12.98 microg/cm2 in the assay with Dermatophagoides farinae [6] and 16.28 microg/cm2 with Tyrophagus putrescentiae [12]. The mortality at 40 µg/cm2 with Dermatophagoides farinae [7] amounted to 100%. Moreover, the mortality at 20 µg/cm2 in the assay on Dermatophagoides farinae [8] is 72.2%. Further, the mortality at 50 µg/cm2 in the assay with Tyrophagus putrescentiae [10] and in the assay with Dermatophagoides farinae [13] was 100% each time.

Take `CCC/C=C1\OC(=O)c2ccccc21` [Z-butylidenephthalide]: the mortality at 2.5 µg/cm2 in the assay with Dermatophagoides farinae [14] is 15.6%; in the assay on Tyrophagus putrescentiae [17] it was 7.8%. Besides, the mortality at 10 µg/cm2 with Tyrophagus putrescentiae [3] came to 22.8%; with Dermatophagoides farinae [11], 77.8%. Further, the RatioLC50 was found to be 0.8 in the assay with Tyrophagus putrescentiae [15], 0.023 with Drosophila melanogaster [18] and 2.25 with Dermatophagoides farinae [22]. The LC50 in the assay on Drosophila melanogaster [1] is 940 µM; in the assay with Dermatophagoides farinae [6], 5.76 microg/cm2; in the assay on Tyrophagus putrescentiae [12], 20.37 microg/cm2. For the same compound, in the assay with Drosophila melanogaster [16], the Ratio was 4.38. For the same compound, the result in the assay on Ctenocephalides felis was inactive. Moreover, the mortality at 20 µg/cm2 in the assay with Dermatophagoides farinae [8] turned out to be 100%; in the assay with Tyrophagus putrescentiae [19], 56.3%. Besides, in the assay on Drosophila melanogaster [2], the LD50 was found to be 0.84 µg. In addition, the values for the mortality at 50 µg/cm2 with Tyrophagus putrescentiae [10] and with Dermatophagoides farinae [13] were 74.1% and 100%, respectively. In addition, the mortality at 5 µg/cm2 turned out to be 32.1% in the assay with Dermatophagoides farinae [20] and 12.9% in the assay with Tyrophagus putrescentiae [21].

Take `CCC/C=C1/OC(=O)c2ccccc21` [(E)-BUTYLIDENEPHTHALIDE]: the mortality at 2.5 µg/cm2 with Dermatophagoides farinae [14] stood at 12.2%; in the assay on Tyrophagus putrescentiae [17], 12.3%. For the same compound, the mortality at 10 µg/cm2 turned out to be 33% in the assay with Tyrophagus putrescentiae [3] and 94.7% in the assay with Dermatophagoides farinae [11]. For the same compound, the RatioLC50 in the assay with Tyrophagus putrescentiae [15] came out at 0.64; in the assay on Drosophila melanogaster [18], 0.01; in the assay on Dermatophagoides farinae [22], 2.78. Moreover, the LC50 was found to be 2070 µM in the assay with Drosophila melanogaster [1], 4.67 microg/cm2 with Dermatophagoides farinae [6] and 25.56 microg/cm2 with Tyrophagus putrescentiae [12]. Also, the Ratio in the assay on Drosophila melanogaster [16] came out at 3.91. In addition, the outcome in the assay on Ctenocephalides felis was inactive. Moreover, the mortality at 20 µg/cm2 is 100% in the assay with Dermatophagoides farinae [8] and 52.9% in the assay with Tyrophagus putrescentiae [19]. Moreover, the LD50 in the assay with Drosophila melanogaster [2] was 0.94 µg. Further, the mortality at 50 µg/cm2 is 57.2% in the assay with Tyrophagus putrescentiae [10] and 100% with Dermatophagoides farinae [13]. Also, the mortality at 5 µg/cm2 in the assay on Dermatophagoides farinae [20] came to 51.6%.
